Results published in publication PMC6419574 (Bioorganic & Medicinal Chemistry Letters, 2019).

Assays:
fascin [1] = biological target: T1, fascin (Homo sapiens, UniProt Q16658); assay type: biochemical
fascin [2] = biological target: T1, fascin; conditions: for Ligand efficiency: from SPR Kd
fascin [3] = biological target: T1, fascin; test: Isothermal titration calorimetry; assay type: binding; conditions: 150 µM compound in syringe, 15 µM fascin in cell, Fig. 3B
fascin [4] = biological target: T1, fascin; test: biochemical; conditions: SPR Kd

inhibition of fascin in the bundling assay (in words) (fascin [1])	Ligand efficiency (fascin [2])	SMILES	also measured
inhibit fascin	–	Cn1cc(NC(=O)c2cn(Cc3ccccc3)c(=O)c3ccccc23)cn1 [Compound 3, 2-benzyl-N-(1-methylpyrazol-4-yl)-1-oxo-isoquinoline-4-carboxamide]	–
–	–	Cn1cc(NC(=O)c2cn(Cc3ccc(Cl)cc3)c(=O)c3ccccc23)cn1 [Compound 5, 2-(4-chlorobenzyl)-N-(1-methyl-1H-pyrazol-4-yl)-1-oxo-1,2-dihydroisoquinoline-4-carboxamide]	increase in binding affinity compared to 3 (fascin [2]; SPR Kd ratio vs compound 3): ≈ 14 fold
inhibit fascin	–	O=c1c2cnn(C3CCS(=O)(=O)C3)c2ncn1Cc1ccc(Cl)c(Cl)c1 (stereo not drawn) [Compound 2, 5-(3,4-dichlorobenzyl)-1-(1,1-dioxidotetrahydrothiophen-3-yl)-1,5-dihydro-4H-pyrazolo[3,4-d]pyrimidin-4-one, reference compound]	improvement of fascin affinity over truncated compound 25 (fascin [2]): 23 fold
–	0.29	O=C(Nc1ccncc1)c1cn(Cc2ccc(Cl)c(Cl)c2)c(=O)c2cnn(C3CCNCC3)c12 [Compound 28, 5-(3,4-dichlorobenzyl)-4-oxo-1-(piperidin-4-yl)-N-(pyridin-4-yl)-4,5-dihydro-1H-pyrazolo[4,3-c]pyridine-7-carboxamide]	ITC stoichiometry N (fascin [3]): 1.05 ± 0.01; Kd (fascin [4]): 85 ± 0.02 nM

SMILES	inhibition of fascin in the bundling assay (in words) (fascin [1])	Ligand efficiency (fascin [2])	also measured
CC(=O)N(C)c1ccc(Cl)cc1Cl [Compound 1, N-(2,4-dichlorophenyl)-N-methylacetamide]	Unlike compound 1, both 2 and 3 inhibit fascin	0.43	–
